According to PubChem BioAssay AID2060603 (Molecular Pharmacology Branch, DTP, NCI, 2025):

Test system: 422866-222-R5-J1-PDC spheroid viability
Experiment: Anticancer human tumor 422866-222-R5-J1-PDC patient-derived pancreatic adenocarcinoma cell line growth inhibition [CLK]
Details: spheroids with HUVEC and MSC; for IC50: curve of first compound; for viability, T/C: stronger effect = lower value
Method in brief: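 Patient-derived tumor cells grown as complex spheroids with HUVEC endothelial cells and mesenchymal stem cells, treated with drug combinations. Concentrations descend in half-log steps from near clinical Cmax, or from 10 microM if Cmax unknown.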

[1] = second compound 0.0316 µM, first compound 0.0316 µM
[2] = second compound 0.0316 µM, first compound 0.1 µM
[3] = second compound 0.1 µM, first compound 0.0316 µM
[4] = second compound 0.1 µM, first compound 0.1 µM
[5] = second compound 0.316 µM, first compound 0.0316 µM
[6] = second compound 0.316 µM, first compound 0.1 µM
[7] = second compound 1 µM, first compound 0.0316 µM
[8] = second compound 1 µM, first compound 0.1 µM
[9] = second compound 3.16 µM, first compound 0.0316 µM
[10] = second compound 3.16 µM, first compound 0.1 µM
[11] = second compound 10 µM, first compound 0.0316 µM
[12] = second compound 10 µM, first compound 0.1 µM
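Further: spheroids exposed to agents for seven days before readout.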

Molecule `Cn1ncnc1[C@H]1c2n[nH]c(=O)c3cc(F)cc(c23)N[C@@H]1c1ccc(F)cc1` + CNC(=O)c1ccc(Nc2nc(OC3CCCC3)c3c(-c4ccc5nc(C)oc5c4)c[nH]c3n2)c(OC)c1 has an IC50 (second compound 0.0316 µM) greater than 0.1 µM, an IC50 (second compound 0.1 µM) greater than 0.1 µM and an IC50 (second compound 0.316 µM) greater than 0.1 µM. The IC50 (second compound 1 µM) was greater than 0.1 µM, the IC50 (second compound 3.16 µM) was greater than 0.1 µM and the IC50 (second compound 10 µM) was greater than 0.1 µM. For the same molecule, the viability, T/C (second compound 0.0316 µM, first compound 0.000316 µM) was 105%, the viability, T/C (second compound 0.0316 µM, first compound 0.001 µM) was 112% and the viability, T/C (second compound 0.0316 µM, first compound 0.00316 µM) was 102%. For the same molecule, the viability, T/C (second compound 0.0316 µM, first compound 0.01 µM) was 91.2%, the viability, T/C [1] was 89.6% and the viability, T/C [2] was 78.6%. The viability, T/C (second compound 0.1 µM, first compound 0.000316 µM) was 98.8%, the viability, T/C (second compound 0.1 µM, first compound 0.001 µM) was 91% and the viability, T/C (second compound 0.1 µM, first compound 0.00316 µM) was 84.2%. For the same molecule, the viability, T/C (second compound 0.1 µM, first compound 0.01 µM) was 89.8%, the viability, T/C [3] was 74.8% and the viability, T/C [4] was 83.8%. It also gave a viability, T/C (second compound 0.316 µM, first compound 0.000316 µM) of 84.8%, a viability, T/C (second compound 0.316 µM, first compound 0.001 µM) of 75.2% and a viability, T/C (second compound 0.316 µM, first compound 0.00316 µM) of 66.3%. The viability, T/C (second compound 0.316 µM, first compound 0.01 µM) was 68%, the viability, T/C [5] was 80.9% and the viability, T/C [6] was 64.7%. It also gave a viability, T/C (second compound 1 µM, first compound 0.000316 µM) of 75.8%, a viability, T/C (second compound 1 µM, first compound 0.001 µM) of 65% and a viability, T/C (second compound 1 µM, first compound 0.00316 µM) of 63.7%. The viability, T/C (second compound 1 µM, first compound 0.01 µM) was 52.4%, the viability, T/C [7] was 52.4% and the viability, T/C [8] was 54.6%. For the same molecule, the viability, T/C (second compound 3.16 µM, first compound 0.000316 µM) was 61.9%, the viability, T/C (second compound 3.16 µM, first compound 0.001 µM) was 73.8% and the viability, T/C (second compound 3.16 µM, first compound 0.00316 µM) was 60.1%. The viability, T/C (second compound 3.16 µM, first compound 0.01 µM) was 54.3%, the viability, T/C [9] was 53.8% and the viability, T/C [10] was 52%. The viability, T/C (second compound 10 µM, first compound 0.000316 µM) was 61.8%, the viability, T/C (second compound 10 µM, first compound 0.001 µM) was 59.6% and the viability, T/C (second compound 10 µM, first compound 0.00316 µM) was 55.9%. The viability, T/C (second compound 10 µM, first compound 0.01 µM) was 48.6%, the viability, T/C [11] was 65% and the viability, T/C [12] was 71.9%.
In the case of `O=C(c1cc(Cc2n[nH]c(=O)c3ccccc23)ccc1F)N1CCN(C(=O)C2CC2)CC1` + CNC(=O)c1ccc(Nc2nc(OC3CCCC3)c3c(-c4ccc5nc(C)oc5c4)c[nH]c3n2)c(OC)c1, the IC50 (second compound 0.0316 µM) is reported as greater than 10 µM, the IC50 (second compound 0.1 µM) is reported as greater than 10 µM and the IC50 (second compound 0.316 µM) is reported as greater than 10 µM. It also gave an IC50 (second compound 1 µM) greater than 10 µM, an IC50 (second compound 3.16 µM) greater than 10 µM and an IC50 (second compound 10 µM) greater than 10 µM. It also gave a viability, T/C [1] of 103%, a viability, T/C [2] of 104% and a viability, T/C (second compound 0.0316 µM, first compound 0.316 µM) of 112%. It also gave a viability, T/C (second compound 0.0316 µM, first compound 1 µM) of 110%, a viability, T/C (second compound 0.0316 µM, first compound 3.16 µM) of 90.6% and a viability, T/C (second compound 0.0316 µM, first compound 10 µM) of 90.2%. It also gave a viability, T/C [3] of 111%, a viability, T/C [4] of 110% and a viability, T/C (second compound 0.1 µM, first compound 0.316 µM) of 108%. It also gave a viability, T/C (second compound 0.1 µM, first compound 1 µM) of 110%, a viability, T/C (second compound 0.1 µM, first compound 3.16 µM) of 91.9% and a viability, T/C (second compound 0.1 µM, first compound 10 µM) of 72%. For the same molecule, the viability, T/C [5] was 85.2%, the viability, T/C [6] was 84.7% and the viability, T/C (second compound 0.316 µM, first compound 0.316 µM) was 77.2%. For the same molecule, the viability, T/C (second compound 0.316 µM, first compound 1 µM) was 71.2%, the viability, T/C (second compound 0.316 µM, first compound 3.16 µM) was 76.1% and the viability, T/C (second compound 0.316 µM, first compound 10 µM) was 60.6%. For the same molecule, the viability, T/C [7] was 71.3%, the viability, T/C [8] was 63.9% and the viability, T/C (second compound 1 µM, first compound 0.316 µM) was 64%. It also gave a viability, T/C (second compound 1 µM, first compound 1 µM) of 52.1%, a viability, T/C (second compound 1 µM, first compound 3.16 µM) of 71.3% and a viability, T/C (second compound 1 µM, first compound 10 µM) of 65.7%. For the same molecule, the viability, T/C [9] was 68%, the viability, T/C [10] was 85.8% and the viability, T/C (second compound 3.16 µM, first compound 0.316 µM) was 68.1%. It also gave a viability, T/C (second compound 3.16 µM, first compound 1 µM) of 66.9%, a viability, T/C (second compound 3.16 µM, first compound 3.16 µM) of 57.8% and a viability, T/C (second compound 3.16 µM, first compound 10 µM) of 59.2%. It also gave a viability, T/C [11] of 66.1%, a viability, T/C [12] of 75.8% and a viability, T/C (second compound 10 µM, first compound 0.316 µM) of 58.3%. The viability, T/C (second compound 10 µM, first compound 1 µM) was 62.1%, the viability, T/C (second compound 10 µM, first compound 3.16 µM) was 62.4% and the viability, T/C (second compound 10 µM, first compound 10 µM) was 51.8%.
